Test results as given in ChEMBL document CHEMBL1795227, “Methanesulfonamido-cyclohexylamine derivatives of 2,4-diaminopyrimidine as potent ALK inhibitors” (Bioorg Med Chem Lett, 2011).

Tests used:
[1] = biological target: T1, ALK tyrosine kinase receptor (Homo sapiens, UniProt Q9UM73); experiment: Inhibition of ALK
Target sequence in this assay (Q9UM73 whole entry): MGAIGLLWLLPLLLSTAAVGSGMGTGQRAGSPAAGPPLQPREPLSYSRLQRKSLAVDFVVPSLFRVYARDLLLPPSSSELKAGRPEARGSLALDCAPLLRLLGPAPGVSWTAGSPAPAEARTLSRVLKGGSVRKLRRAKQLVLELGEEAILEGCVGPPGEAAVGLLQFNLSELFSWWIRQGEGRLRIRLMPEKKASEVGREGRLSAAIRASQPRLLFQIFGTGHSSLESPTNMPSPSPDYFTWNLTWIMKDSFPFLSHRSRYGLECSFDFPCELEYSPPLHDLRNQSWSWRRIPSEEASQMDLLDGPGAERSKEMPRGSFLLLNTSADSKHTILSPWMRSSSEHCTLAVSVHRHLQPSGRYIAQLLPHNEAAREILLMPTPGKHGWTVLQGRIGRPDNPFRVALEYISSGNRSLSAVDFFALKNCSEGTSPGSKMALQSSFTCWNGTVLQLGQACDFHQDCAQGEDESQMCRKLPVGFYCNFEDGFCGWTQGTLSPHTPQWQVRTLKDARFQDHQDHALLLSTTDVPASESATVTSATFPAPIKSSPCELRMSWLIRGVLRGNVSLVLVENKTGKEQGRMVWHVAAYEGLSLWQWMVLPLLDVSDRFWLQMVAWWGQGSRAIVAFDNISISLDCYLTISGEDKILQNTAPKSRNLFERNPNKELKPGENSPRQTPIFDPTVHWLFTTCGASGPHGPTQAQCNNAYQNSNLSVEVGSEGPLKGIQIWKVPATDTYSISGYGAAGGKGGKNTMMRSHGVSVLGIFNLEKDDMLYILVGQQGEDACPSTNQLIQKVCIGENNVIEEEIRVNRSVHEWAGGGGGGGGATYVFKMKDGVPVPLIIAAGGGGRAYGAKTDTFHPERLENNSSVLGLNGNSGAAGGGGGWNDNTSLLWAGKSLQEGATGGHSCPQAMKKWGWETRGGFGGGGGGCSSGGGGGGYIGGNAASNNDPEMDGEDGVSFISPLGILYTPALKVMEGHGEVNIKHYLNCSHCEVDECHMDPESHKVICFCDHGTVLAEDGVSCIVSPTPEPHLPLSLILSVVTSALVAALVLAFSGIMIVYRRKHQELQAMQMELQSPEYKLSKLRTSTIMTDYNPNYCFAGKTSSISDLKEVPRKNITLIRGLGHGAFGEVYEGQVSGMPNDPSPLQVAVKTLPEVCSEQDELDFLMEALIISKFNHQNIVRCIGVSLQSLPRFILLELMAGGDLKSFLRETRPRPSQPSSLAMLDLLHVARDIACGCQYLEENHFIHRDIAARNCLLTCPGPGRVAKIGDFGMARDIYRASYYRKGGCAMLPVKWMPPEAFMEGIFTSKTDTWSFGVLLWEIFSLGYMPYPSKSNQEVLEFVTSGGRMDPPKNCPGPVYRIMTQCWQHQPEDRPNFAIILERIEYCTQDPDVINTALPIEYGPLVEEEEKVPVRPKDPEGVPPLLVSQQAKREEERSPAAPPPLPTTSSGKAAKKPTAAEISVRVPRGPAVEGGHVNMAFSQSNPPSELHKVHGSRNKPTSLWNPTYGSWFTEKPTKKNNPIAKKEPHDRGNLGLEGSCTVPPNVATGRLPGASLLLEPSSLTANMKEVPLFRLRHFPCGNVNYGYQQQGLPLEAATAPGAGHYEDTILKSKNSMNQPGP

[2] = biological target: T1, ALK tyrosine kinase receptor; experiment: Inhibition of autophosphorylation of NPM-ALK in human Karpas-299 cells; type: cell-based
Target sequence in this assay (Q9UM73 19-1620 limits assumed): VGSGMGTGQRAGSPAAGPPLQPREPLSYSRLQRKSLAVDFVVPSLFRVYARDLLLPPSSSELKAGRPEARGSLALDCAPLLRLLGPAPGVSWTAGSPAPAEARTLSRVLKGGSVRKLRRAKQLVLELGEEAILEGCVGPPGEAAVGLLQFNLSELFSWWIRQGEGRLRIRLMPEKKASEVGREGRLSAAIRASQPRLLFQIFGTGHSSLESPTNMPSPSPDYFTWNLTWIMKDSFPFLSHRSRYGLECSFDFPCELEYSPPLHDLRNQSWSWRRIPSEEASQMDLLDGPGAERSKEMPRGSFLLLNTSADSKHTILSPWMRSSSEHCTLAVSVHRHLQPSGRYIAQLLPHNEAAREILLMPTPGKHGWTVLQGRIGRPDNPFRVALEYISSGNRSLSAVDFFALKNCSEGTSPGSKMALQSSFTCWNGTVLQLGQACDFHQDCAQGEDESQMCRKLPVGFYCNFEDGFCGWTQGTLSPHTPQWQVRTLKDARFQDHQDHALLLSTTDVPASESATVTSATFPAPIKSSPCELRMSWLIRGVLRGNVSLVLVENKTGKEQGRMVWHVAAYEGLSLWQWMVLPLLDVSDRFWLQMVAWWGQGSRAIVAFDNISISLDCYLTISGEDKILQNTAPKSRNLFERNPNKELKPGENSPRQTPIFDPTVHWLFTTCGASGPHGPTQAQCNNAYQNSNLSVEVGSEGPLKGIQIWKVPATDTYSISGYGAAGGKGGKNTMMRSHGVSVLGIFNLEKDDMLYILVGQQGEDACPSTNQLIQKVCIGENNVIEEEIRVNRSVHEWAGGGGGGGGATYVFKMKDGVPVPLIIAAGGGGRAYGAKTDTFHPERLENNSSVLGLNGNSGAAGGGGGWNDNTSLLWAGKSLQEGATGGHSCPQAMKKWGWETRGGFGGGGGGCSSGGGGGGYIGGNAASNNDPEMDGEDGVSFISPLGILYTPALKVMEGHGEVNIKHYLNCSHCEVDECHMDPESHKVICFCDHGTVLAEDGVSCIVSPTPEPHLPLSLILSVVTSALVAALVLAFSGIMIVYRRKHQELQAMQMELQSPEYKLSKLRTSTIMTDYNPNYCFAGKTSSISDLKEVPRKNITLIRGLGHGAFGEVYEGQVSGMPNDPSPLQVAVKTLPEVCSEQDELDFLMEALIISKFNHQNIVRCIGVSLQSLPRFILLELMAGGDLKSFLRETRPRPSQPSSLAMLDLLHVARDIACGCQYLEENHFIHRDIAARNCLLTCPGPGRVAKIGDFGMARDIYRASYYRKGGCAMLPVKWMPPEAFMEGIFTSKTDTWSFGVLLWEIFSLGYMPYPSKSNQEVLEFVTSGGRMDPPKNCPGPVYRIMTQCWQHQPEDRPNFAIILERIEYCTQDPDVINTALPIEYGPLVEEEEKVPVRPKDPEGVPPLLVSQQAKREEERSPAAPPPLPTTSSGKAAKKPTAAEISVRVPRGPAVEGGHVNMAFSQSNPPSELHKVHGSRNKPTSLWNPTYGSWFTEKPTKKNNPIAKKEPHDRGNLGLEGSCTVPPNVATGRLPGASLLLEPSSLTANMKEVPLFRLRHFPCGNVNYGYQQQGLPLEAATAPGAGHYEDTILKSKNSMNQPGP

[3] = biological target: Insulin receptor (Homo sapiens, UniProt P06213); experiment: Inhibition of IR
Sequence of Insulin receptor (P06213 28-758 limits assumed): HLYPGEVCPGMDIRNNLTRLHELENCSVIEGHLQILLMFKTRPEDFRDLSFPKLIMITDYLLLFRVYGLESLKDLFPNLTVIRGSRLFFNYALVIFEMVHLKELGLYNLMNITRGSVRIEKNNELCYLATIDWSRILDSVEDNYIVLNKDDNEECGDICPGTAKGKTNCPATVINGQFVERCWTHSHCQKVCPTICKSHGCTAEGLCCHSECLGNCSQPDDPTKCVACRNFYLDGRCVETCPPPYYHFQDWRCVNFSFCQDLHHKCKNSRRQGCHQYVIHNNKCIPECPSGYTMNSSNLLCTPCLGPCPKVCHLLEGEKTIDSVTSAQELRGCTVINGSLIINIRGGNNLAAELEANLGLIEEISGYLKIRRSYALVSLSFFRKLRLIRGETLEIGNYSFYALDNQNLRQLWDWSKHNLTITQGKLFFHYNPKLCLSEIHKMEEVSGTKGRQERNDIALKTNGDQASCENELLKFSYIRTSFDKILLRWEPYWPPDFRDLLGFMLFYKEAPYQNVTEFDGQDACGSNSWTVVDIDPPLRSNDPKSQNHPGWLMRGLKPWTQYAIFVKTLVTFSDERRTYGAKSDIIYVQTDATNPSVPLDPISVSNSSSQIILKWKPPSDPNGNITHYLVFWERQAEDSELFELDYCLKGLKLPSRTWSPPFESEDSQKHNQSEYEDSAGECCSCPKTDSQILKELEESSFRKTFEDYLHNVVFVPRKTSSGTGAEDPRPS
Sequence of Insulin receptor (P06213 763-1382 limits assumed): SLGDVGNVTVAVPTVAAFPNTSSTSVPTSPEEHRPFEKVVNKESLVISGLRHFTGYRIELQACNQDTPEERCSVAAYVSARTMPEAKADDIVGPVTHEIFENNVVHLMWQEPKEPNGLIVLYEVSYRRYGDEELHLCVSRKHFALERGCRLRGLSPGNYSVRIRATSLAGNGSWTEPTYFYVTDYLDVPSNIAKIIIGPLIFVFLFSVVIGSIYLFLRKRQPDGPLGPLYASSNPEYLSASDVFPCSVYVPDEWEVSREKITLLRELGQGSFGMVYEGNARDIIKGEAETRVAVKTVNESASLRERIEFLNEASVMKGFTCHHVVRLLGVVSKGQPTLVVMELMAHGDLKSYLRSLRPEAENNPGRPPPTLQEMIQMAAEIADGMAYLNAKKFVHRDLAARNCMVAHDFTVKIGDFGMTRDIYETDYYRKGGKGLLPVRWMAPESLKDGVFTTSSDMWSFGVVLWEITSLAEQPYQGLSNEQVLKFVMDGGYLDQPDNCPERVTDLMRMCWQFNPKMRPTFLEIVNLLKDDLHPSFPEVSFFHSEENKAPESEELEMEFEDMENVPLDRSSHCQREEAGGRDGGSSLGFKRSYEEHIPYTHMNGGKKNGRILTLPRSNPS

Structure (SMILES)	IC50 [1] [nM]	IC50 [2] [nM]	IC50 [3] [nM]
COc1cc(N2CCOCC2)ccc1Nc1ncc(Cl)c(N[C@@H]2CCCC[C@H]2NS(C)(=O)=O)n1	10	65	1700
COCCN1CCc2ccc(Nc3ncc(Cl)c(NC4CCCCC4)n3)cc2CC1	78		77
COCCN1CCc2ccc(Nc3ncc(Cl)c(N[C@@H]4CCC[C@H](NS(C)(=O)=O)C4)n3)cc2CC1 (racemic)	> 3000		
COCCN1CCc2ccc(Nc3ncc(Cl)c(N[C@@H]4CCCC[C@H]4NS(=O)(=O)C4CC4)n3)cc2CC1	110		
CCN([C@@H]1CCCC[C@H]1Nc1nc(Nc2cc3c(cc2OC)CCN(CCOC)CC3)ncc1Cl)S(C)(=O)=O	20	150	430
COCCN1CCc2ccc(Nc3ncc(Cl)c(N[C@@H]4CCC[C@@H](NS(C)(=O)=O)C4)n3)cc2CC1 (racemic)	> 3000		
COc1cc(N2CCOCC2)ccc1Nc1ncc(Cl)c(N[C@H]2CCCC[C@@H]2NS(C)(=O)=O)n1	> 10000		6300
COCCN1CCc2ccc(Nc3ncc(Cl)c(N[C@H]4CC[C@H](NS(C)(=O)=O)CC4)n3)cc2CC1	100		
COCCN1CCc2ccc(Nc3ncc(Cl)c(N[C@@H]4CCCC[C@H]4NS(=O)(=O)C(C)C)n3)cc2CC1	130		
COCCN1CCc2ccc(Nc3ncc(Cl)c(N[C@H]4CC[C@@H](NS(C)(=O)=O)CC4)n3)cc2CC1	220		
COCCN1CCc2ccc(Nc3ncc(Cl)c(N[C@@H]4CCCC[C@H]4O)n3)cc2CC1 (racemic)	> 3000		
COCCN1CCc2ccc(Nc3ncc(Cl)c(N[C@@H]4CCCC[C@H]4NS(=O)(=O)CC(F)(F)F)n3)cc2CC1	31	300	840
COc1cc(N2CCOCC2)ccc1Nc1ncc(Cl)c(N[C@@H]2CCCC[C@@H]2NS(C)(=O)=O)n1 (racemic)	330		180
COCCN1CCc2ccc(Nc3ncc(Cl)c(N[C@@H]4CCCC[C@H]4N)n3)cc2CC1	680		

The next lines start with the values.

IC50 [1] [nM]	IC50 [2] [nM]	IC50 [3] [nM]	Structure (SMILES)
370		150	CCN1CCc2ccc(Nc3ncc(Cl)c(N[C@@H]4CCCC[C@H]4NC(=O)N(C)C)n3)cc2CC1
9	60	920	CCN1CCc2ccc(Nc3ncc(Cl)c(N[C@@H]4CCCC[C@H]4NS(C)(=O)=O)n3)cc2CC1
22	100	710	COCCN1CCc2ccc(Nc3ncc(Cl)c(N[C@@H]4CCCC[C@H]4NC(=O)C(F)(F)F)n3)cc2CC1
9	65	150	CCN1CCc2ccc(Nc3ncc(Cl)c(N[C@@H]4CCCC[C@H]4NC(C)=O)n3)cc2CC1
9	73	540	COCCN1CCc2ccc(Nc3ncc(Cl)c(N[C@@H]4CCCC[C@H]4NS(C)(=O)=O)n3)cc2CC1
26	200	740	CCN1CCc2ccc(Nc3ncc(Cl)c(N[C@@H]4CCCC[C@H]4NC(=O)C(F)(F)F)n3)cc2CC1
50		930	CCS(=O)(=O)N[C@@H]1CCCC[C@H]1Nc1nc(Nc2ccc3c(c2)CCN(CCOC)CC3)ncc1Cl
